Experiments:
[1] = test system: dihydrotestosterone secretion in TM3 cells; assay: Dihydrotestosterone secreted by TM3 cells (ELISA); assay type: cell-based, mouse; conditions: sildenafil 200 μg/mL, positive control in dihydrotestosterone test, FIG. 16
Description: 3. Dihydrotestosterone (DHT) Content
TM3 cells was cultured with the oyster peptide culture solution for 24 h, the obtained culture solution was centrifuged, a supernatant was taken and mixed uniformly, and the content of dihydrotestosterone was detected according to instructions of ELISA kit.
Operation procedure for detecting dihydrotestosterone: (1) Standards were added into standard wells at 50 μL/well. (2) 40 μL of sample diluent was added to sample wells and then 10 μL of the sample to be tested was added, and nothing was added to the blank wells. (3) The reaction wells were sealed with the plate-sealing film and incubated at 37° C. for 45 min. […] (10) A stop solution was added at 50 μL/well and mixed uniformly and then the OD450 value was measured.
Dihydrotestosterone is a steroid hormone secreted by testes and a main male hormone in the human body, is related to the development of male secondary sexual characteristics and plays an important role in maintaining normal sexual desire. In this test example, the oyster peptide culture solutions of Example 1 at different concentrations and the oyster peptide culture solutions of Examples 1-3 and Comparative Examples 1-4 at the same concentration were used to treat TM3 cells for 24 h, and then the supernatants of cells were collected, and the contents of dihydrotestosterone secreted by the cells were measured by the ELISA method. […]

[2] = test system: NO content in TM3 cells; assay: NO content in TM3 cells (NO determination kit); assay type: cell-based, mouse; conditions: sildenafil 200 μg/mL, vs control group (p<0.05), FIG. 18
Description: 4. Detection of NO Content
TM3 cells were cultured with the oyster peptide culture solution for 24 h, the obtained culture solution was centrifuged, a supernatant was taken and mixed uniformly, and the content of NO was detected according to instructions of NO determination kit.
Operation procedure for detecting NO: (1) Reagent preparation: all reagents were taken out and equilibrated to room temperature for use. (2) 100 μM standard working solution: 5 μL of concentrated standard was added to 495 μL of reaction buffer and mixed well. […] After the incubation was over, the microplate was taken out, placed into an incubator at 37° C. and further incubated for 60 min, and then taken out and placed into a microplate reader for reading at 540 nm. (5) Quantitative calculation of total nitric oxide in samples:
NO is a small fat-soluble molecule with unstable chemical properties and is produced by a catalyzed reaction of nitric oxide synthase in a body, and it can cause the expansion of blood vessels in the body. […] The effect of the oyster peptide on the NO content in TM3 cells was detected according to the instructions of NO determination kit. […]

SMILES: CCCc1nn(C)c2c(=O)[nH]c(-c3cc(S(=O)(=O)N4CCN(C)CC4)ccc3OCC)nc12 [sildenafil]
- dihydrotestosterone secreted by TM3 cells [1]: significantly promoting
- NO content in TM3 cells [2]: increased significantly

From patent US12389931B2, “Oyster peptide with effect of improving sexual function and preparation method thereof” (priority 2019, dated 2025)
